Experimental data published in patent publication US20250325536A1, “THERAPEUTIC USES OF GLP1R AGONISTS” (vTv Therapeutics LLC, priority 2018, published 2025).

Legend:
[1] = system: subjects (humans) with type 2 diabetes; experiment: Phase 2 clinical study of API-1, 12 weeks of treatment, on stable metformin; assay type: in vivo, human; conditions: for placebo-subtracted decrease from baseline in HbA1c (%): p<0.001
Protocol: A Phase 2 clinical study was designed as a randomized, double-blind, placebo- controlled, parallel-group multi-center study evaluating the efficacy and safety following 12 weeks of treatment with API-1 in subjects (humans) with type 2 diabetes who were being treated with a stable dose of metformin. Subjects were randomly assigned to one of three treatment groups, API-1 150 mg BID, API-1 150 mg QPM, or placebo with approximately n=52/group. A total of approximately 156 patients were to be randomized into this study and 174 were ultimately randomized. Subjects were enrolled and randomized according to a fixed randomization scheme blocked by study investigative site. Severity of diabetes was determined by HbA1c measures (7.5% to 10%) at screening, confirmed at Baseline, and HbA1c was used as a stratification variable in the randomization scheme: HbA1c less than 8% and 8% or more. Randomization was to be a balanced allocation (1:1:1) among the three treatment groups. Dropouts were not to be replaced. Statistical analyses for topline results included placebo-subtracted change from baseline (LSM-CFB) for HbA1c (primary endpoint) and body weight (secondary endpoint) as well as a post hoc concentration/effect analysis to evaluate the effect of exposure on efficacy.

[2] = system: subjects (humans) with T2DM; experiment: Phase 2 dose-ranging study of API-2, 12 weeks of treatment; assay type: in vivo, human; conditions: Target population (Baseline 8-11%)
Protocol: A Phase 2 study was designed as a randomized, double-blind, placebo controlled, dose-ranging, parallel group study evaluating the efficacy and safety following 12 weeks of treatment with API-2 in subjects (humans) with T2DM. The study was conducted in 2 parts: Part A and Part B. Part A and Part B were identical except for the dose levels administered. In Part A, subjects received one of two treatments administered orally for 12 weeks: API-2 400 mg QD (n=51) or matching placebo (n=26). In Part B, subjects received one of three treatments administered orally for 12 weeks: API-2 200 mg QD (n=28), API-2 800 mg QD (n=56), or matching placebo (n=26).

[3] = 150 mg once daily (QPM) arm, Week 12, completers, 2.2 mg/kg to 1.0 mg/kg
[4] = 150 mg twice daily (BID) arm, Week 12, completers, 2.2 mg/kg to 4.8 mg/kg

With CC[C@@H](c1ccccc1)N1Cc2cc3c(cc2C[C@H]1C(=O)N[C@@H](Cc1ccc(-c2ccnc(C)c2C)cc1)C(=O)O)OC[C@H](c1ccc(OCc2ccc(Cl)c(Cl)c2)cc1)O3.Cl.Cl [API-1, (S)-2-{[(3S,8S)-3-[4-(3,4-dichloro-benzyloxy)-phenyl]-7-((S)-1-phenyl-propyl)-2,3,6,7,8,9-hexahydro-[1,4]dioxino[2,3-g]isoquinoline-8-carbonyl]-amino}-3-[4-(2,3-dimethyl-pyridin-4-yl)-phenyl]-propionic acid hydrochloride (1:2)] the “placebo-subtracted decrease from baseline in HbA1c (%)” value ([1]; 150 mg once daily (QPM) arm, 12 weeks) was 0.9±0.2%, the “dose (mg/kg) response of change from baseline in FPG (FIG. 3)” value [1, 3] was “increased as the dose was reduced” and the “dose (mg/kg) response of change from baseline in HbA1c (FIG. 1)” value [1, 3] was “increased as the dose was reduced”. For the same compound, the “weight loss (average)” value ([1]; 150 mg once daily arm, 12 weeks, p=0.08) was 0.9 kg, the “placebo-subtracted decrease from baseline in HbA1c (%)” value ([1]; 150 mg twice daily (BID) arm, 12 weeks) was 0.7±0.2% and the “dose (mg/kg) response of change from baseline in FPG (FIG. 4)” value [1, 4] was “almost unchanged”. For the same compound, the “dose (mg/kg) response of change from baseline in HbA1c (FIG. 2)” value [1, 4] was “almost unchanged”, the “weight loss (average)” value ([1]; 150 mg twice daily arm, 12 weeks) was 0.6 kg and the “Mean Change from Baseline HbA1c (%)” value ([1]; group 1-1.35 mg/kg (<1.35), Week 4) was −0.57%. The “Mean Change from Baseline HbA1c (%)” value ([1]; group 1-1.35 mg/kg (<1.35), Week 8) was −1.26%, the “Mean Change from Baseline HbA1c (%)” value ([1]; group 1-1.35 mg/kg (<1.35), Week 12) was −1.71% and the “Mean Change from Baseline HbA1c (%)” value ([1]; group 1.35-1.64 mg/kg, Week 4) was −0.35%. For the same compound, the “Mean Change from Baseline HbA1c (%)” value ([1]; group 1.35-1.64 mg/kg, Week 8) was −0.85%, the “Mean Change from Baseline HbA1c (%)” value ([1]; group 1.35-1.64 mg/kg, Week 12) was −0.90% and the “Mean Change from Baseline HbA1c (%)” value ([1]; group 1.65-1.75 mg/kg, Week 4) was −0.21%. The “Mean Change from Baseline HbA1c (%)” value ([1]; group 1.65-1.75 mg/kg, Week 8) was −0.51%, the “Mean Change from Baseline HbA1c (%)” value ([1]; group 1.65-1.75 mg/kg, Week 12) was −0.75% and the “Mean Change from Baseline HbA1c (%)” value ([1]; group 1.76-2.2 mg/kg (>1.75), Week 4) was −0.31%. For the same compound, the “Mean Change from Baseline HbA1c (%)” value ([1]; group 1.76-2.2 mg/kg (>1.75), Week 8) was −0.43%, the “Mean Change from Baseline HbA1c (%)” value ([1]; group 1.76-2.2 mg/kg (>1.75), Week 12) was −0.55% and the “placebo-subtracted decrease from baseline in fasting plasma glucose” value ([1]; once daily arm, 12 weeks) was “about 16 mg/dL”. The “reduction from baseline in HbA1c” value ([1]; patients dosed with lower than 1.35 mg/kg, 12 weeks, p<0.01) was 1.7%, the “reduction from baseline in body weight” value ([1]; patients dosed with lower than 1.35 mg/kg, 12 weeks, p<0.05) was 3.7 kg and the “placebo-subtracted decrease from baseline in fasting plasma glucose” value ([1]; twice daily arm, 12 weeks) was ~17 mg/dL.
For CC[C@@H](c1ccccc1)N1Cc2cc3c(cc2C[C@H]1C(=O)N[C@@H](Cc1ccc(-c2ccc(C#N)cc2)cc1)C(=O)O)N(C)C(=O)[C@@H](c1ccc(OCc2ccc(Cl)c(Cl)c2)cc1)O3 [API-2, (S)-3-(4′-cyano-biphenyl-4-yl)-2-{[(3R,7S)-3-[4-(3,4-dichlorobenzyloxy)-phenyl]-1-methyl-2-oxo-6-((S)-1-phenyl-propyl)-2,3,5,6,7,8-hexahydro-1H-4-oxa-1,6-diaza-anthracene-7-carbonyl]-amino}-propionic acid], the “Mean Change from Baseline in HbA1c (%)” value ([2]; group 1.4-2.7 mg/kg (<2.7), Week 4) was −0.37%, the “Mean Change from Baseline in HbA1c (%)” value ([2]; group 1.4-2.7 mg/kg (<2.7), Week 8) was −0.69% and the “Mean Change from Baseline in HbA1c (%)” value ([2]; group 1.4-2.7 mg/kg (<2.7), Week 12) was −0.79%. The “Mean Change from Baseline in HbA1c (%)” value ([2]; group 2.8-4.0 mg/kg, Week 4) was −0.47%, the “Mean Change from Baseline in HbA1c (%)” value ([2]; group 2.8-4.0 mg/kg, Week 8) was −0.86% and the “Mean Change from Baseline in HbA1c (%)” value ([2]; group 2.8-4.0 mg/kg, Week 12) was −1.09%. For the same compound, the “Mean Change from Baseline in HbA1c (%)” value ([2]; group 4.1-5.0 mg/kg, Week 4) was −0.36%, the “Mean Change from Baseline in HbA1c (%)” value ([2]; group 4.1-5.0 mg/kg, Week 8) was −0.78% and the “Mean Change from Baseline in HbA1c (%)” value ([2]; group 4.1-5.0 mg/kg, Week 12) was −0.85%. For the same compound, the “Mean Change from Baseline in HbA1c (%)” value ([2]; group 5.1-12.4 mg/kg (>5.0), Week 4) was −0.26%, the “Mean Change from Baseline in HbA1c (%)” value ([2]; group 5.1-12.4 mg/kg (>5.0), Week 8) was −0.34% and the “Mean Change from Baseline in HbA1c (%)” value ([2]; group 5.1-12.4 mg/kg (>5.0), Week 12) was −0.34%.
